# Laboratory results published in the supplement of paper PMC5662764.
# ± gives the standard deviation of the averaged measurements.
# How the values were obtained:
# Experiment in all cases: normalised growth rate inhibition (GR value) relative to DMSO control (GR (1 = untreated growth, 0 = cytostasis, <0 = cytotoxic)); higher = less growth inhibition
# Details in all cases: 72 h
# [1] = tested on: BT20
# Procedure: (§1)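 Breast cancer cell lines (BT-20, Hs 578T, MCF 10A, MCF7, MDA-MB-231, SK-BR-3) were plated in 384-well plates and treated 24 h later with drugs at six concentrations (0.04-10 µM). Viable cells were counted by Hoechst/dead-cell-stain imaging at 0 and 72 h. Counts were normalised to DMSO controls on the same plate to give the relative cell count and the growth-rate inhibition (GR) value; technical plate triplicates were averaged for each biological replicate.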
# [2] = tested on: HS578T
# Procedure: as §1
# [3] = tested on: MCF10A
# Procedure: as §1
# [4] = tested on: MCF7
# Procedure: as §1
# [5] = tested on: MDAMB231
# Procedure: as §1
# [6] = tested on: SKBR3
# Procedure: as §1
SMILES,normalised growth rate inhibition ([1]; 0.04 µM),normalised growth rate inhibition ([1]; 0.12 µM),normalised growth rate inhibition ([1]; 0.37 µM),normalised growth rate inhibition ([1]; 1.11 µM),normalised growth rate inhibition ([1]; 3.33 µM),normalised growth rate inhibition ([1]; 10 µM),normalised growth rate inhibition ([2]; 0.04 µM),normalised growth rate inhibition ([2]; 0.12 µM),normalised growth rate inhibition ([2]; 0.37 µM),normalised growth rate inhibition ([2]; 1.11 µM),normalised growth rate inhibition ([2]; 3.33 µM),normalised growth rate inhibition ([2]; 10 µM),normalised growth rate inhibition ([3]; 0.04 µM),normalised growth rate inhibition ([3]; 0.12 µM),normalised growth rate inhibition ([3]; 0.37 µM),normalised growth rate inhibition ([3]; 1.11 µM),normalised growth rate inhibition ([3]; 3.33 µM),normalised growth rate inhibition ([3]; 10 µM),normalised growth rate inhibition ([4]; 0.04 µM),normalised growth rate inhibition ([4]; 0.12 µM),normalised growth rate inhibition ([4]; 0.37 µM),normalised growth rate inhibition ([4]; 1.11 µM),normalised growth rate inhibition ([4]; 3.33 µM),normalised growth rate inhibition ([4]; 10 µM),normalised growth rate inhibition ([5]; 0.04 µM),normalised growth rate inhibition ([5]; 0.12 µM),normalised growth rate inhibition ([5]; 0.37 µM),normalised growth rate inhibition ([5]; 1.11 µM),normalised growth rate inhibition ([5]; 3.33 µM),normalised growth rate inhibition ([5]; 10 µM),normalised growth rate inhibition ([6]; 0.04 µM),normalised growth rate inhibition ([6]; 0.12 µM),normalised growth rate inhibition ([6]; 0.37 µM),normalised growth rate inhibition ([6]; 1.11 µM),normalised growth rate inhibition ([6]; 3.33 µM),normalised growth rate inhibition ([6]; 10 µM)
CC(C)(C)c1cnc(CSc2cnc(NC(=O)C3CCNCC3)s2)o1,0.885 ± 0.061,0.134 ± 0.27,-0.239 ± 0.067,-0.323 ± 0.17,-0.33 ± 0.19,-0.299 ± 0.2,0.786 ± 0.044,-0.123 ± 0.12,-0.146 ± 0.094,-0.155 ± 0.12,-0.137 ± 0.095,-0.148 ± 0.11,0.921 ± 0.093,0.0575 ± 0.011,-0.186 ± 0.2,-0.256 ± 0.23,-0.261 ± 0.23,-0.254 ± 0.19,-0.0791 ± 0.16,-0.295 ± 0.04,-0.329 ± 0.061,-0.326 ± 0.058,-0.34 ± 0.063,-0.354 ± 0.083,0.314 ± 0.11,-0.201 ± 0.17,-0.24 ± 0.17,-0.23 ± 0.15,-0.203 ± 0.18,-0.201 ± 0.14,0.464 ± 0.18,-0.223 ± 0.15,-0.312 ± 0.17,-0.332 ± 0.17,-0.343 ± 0.21,-0.367 ± 0.21
CC(C)CC(=O)Nc1n[nH]c2c1CN(C(=O)C1CCN(C)CC1)C2(C)C,0.52 ± 0.085,0.436 ± 0.047,0.276 ± 0.097,0.109 ± 0.12,-0.0127 ± 0.079,-0.219 ± 0.12,0.497 ± 0.057,0.427 ± 0.073,0.227 ± 0.11,0.0474 ± 0.12,-0.035 ± 0.096,-0.157 ± 0.11,0.322 ± 0.09,0.228 ± 0.053,0.116 ± 0.063,0.0382 ± 0.073,-0.0512 ± 0.066,-0.187 ± 0.19,0.207 ± 0.15,0.143 ± 0.1,0.0348 ± 0.063,-0.0125 ± 0.053,-0.102 ± 0.12,-0.328 ± 0.029,0.304 ± 0.16,0.211 ± 0.072,0.0329 ± 0.056,-0.0471 ± 0.091,-0.13 ± 0.13,-0.262 ± 0.2,0.145 ± 0.15,0.0952 ± 0.085,0.0136 ± 0.079,-0.0334 ± 0.073,-0.0738 ± 0.074,-0.305 ± 0.21
CCN(CC)CCCCNc1ncc2cc(-c3cc(OC)cc(OC)c3)c(NC(=O)NC(C)(C)C)nc2n1,1.1 ± 0.039,1.08 ± 0.058,1.09 ± 0.056,1.14 ± 0.066,1.16 ± 0.049,0.853 ± 0.18,0.852 ± 0.074,0.824 ± 0.083,0.835 ± 0.074,0.846 ± 0.061,0.809 ± 0.071,0.164 ± 0.14,1.022 ± 0.0032,1.005 ± 0.0025,0.9981 ± 0.0038,0.9929 ± 0.0079,0.984 ± 0.016,0.644 ± 0.15,1.1 ± 0.066,1.08 ± 0.029,1.04 ± 0.078,1.1 ± 0.066,1.1 ± 0.12,0.572 ± 0.16,1.08 ± 0.053,1.07 ± 0.032,1.08 ± 0.079,1.07 ± 0.054,1.04 ± 0.018,0.0514 ± 0.23,1.14 ± 0.12,1.12 ± 0.13,1.08 ± 0.085,1.13 ± 0.12,1.12 ± 0.11,0.209 ± 0.2
CCc1cc(Nc2nccc(-c3c(-c4ccc(OC)c(C(=O)Nc5c(F)cccc5F)c4)nc4ccccn34)n2)c(OC)cc1N1CCC(N2CCN(S(C)(=O)=O)CC2)CC1,0.821 ± 0.056,0.902 ± 0.036,0.916 ± 0.017,0.937 ± 0.042,0.961 ± 0.029,0.999 ± 0.043,0.96 ± 0.025,0.958 ± 0.013,0.965 ± 0.017,0.931 ± 0.024,0.951 ± 0.032,0.955 ± 0.023,0.719 ± 0.2,0.699 ± 0.19,0.656 ± 0.22,0.608 ± 0.23,0.621 ± 0.23,0.634 ± 0.18,0.473 ± 0.16,0.418 ± 0.17,0.404 ± 0.092,0.363 ± 0.081,0.358 ± 0.069,0.319 ± 0.091,0.813 ± 0.093,0.864 ± 0.045,0.893 ± 0.027,0.9 ± 0.011,0.971 ± 0.02,0.939 ± 0.024,0.701 ± 0.094,0.841 ± 0.045,0.98 ± 0.02,0.986 ± 0.057,1.04 ± 0.023,1.05 ± 0.027
CN(c1ncccc1CNc1nc(Nc2ccc3c(c2)CC(=O)N3)ncc1C(F)(F)F)S(C)(=O)=O,0.921 ± 0.011,0.879 ± 0.031,0.815 ± 0.069,0.583 ± 0.13,0.201 ± 0.15,-0.212 ± 0.071,0.897 ± 0.02,0.812 ± 0.035,0.735 ± 0.034,0.62 ± 0.042,0.438 ± 0.048,-0.0953 ± 0.11,0.894 ± 0.02,0.814 ± 0.017,0.66 ± 0.014,0.4 ± 0.098,0.0782 ± 0.016,-0.191 ± 0.2,0.8557 ± 0.0043,0.759 ± 0.054,0.529 ± 0.066,0.251 ± 0.094,-0.0743 ± 0.044,-0.309 ± 0.069,0.897 ± 0.027,0.825 ± 0.081,0.741 ± 0.075,0.577 ± 0.14,0.166 ± 0.14,-0.196 ± 0.22,1.05 ± 0.051,0.984 ± 0.095,0.704 ± 0.099,0.198 ± 0.053,-0.0632 ± 0.084,-0.254 ± 0.25
CNC(=O)Nc1ccc(-c2nc(N3CC4CCC(C3)O4)c3cnn(C4CCC5(CC4)OCCO5)c3n2)cc1,0.473 ± 0.17,0.269 ± 0.11,0.208 ± 0.084,0.15 ± 0.064,0.113 ± 0.075,0.0435 ± 0.086,0.268 ± 0.079,0.212 ± 0.066,0.198 ± 0.091,0.172 ± 0.096,0.177 ± 0.093,0.101 ± 0.15,0.506 ± 0.15,0.284 ± 0.064,0.224 ± 0.057,0.176 ± 0.017,0.151 ± 0.042,0.14 ± 0.026,0.16 ± 0.091,0.14 ± 0.1,0.13 ± 0.069,0.149 ± 0.1,0.0933 ± 0.1,-0.00137 ± 0.14,0.499 ± 0.16,0.369 ± 0.18,0.301 ± 0.15,0.285 ± 0.12,0.23 ± 0.12,0.0984 ± 0.14,0.0703 ± 0.093,0.000862 ± 0.13,-0.00643 ± 0.17,-0.00784 ± 0.15,-0.0626 ± 0.15,-0.0635 ± 0.14
COCC(=O)NC/C=C/c1ccc2ncnc(Nc3ccc(Oc4ccc(C)nc4)c(C)c3)c2c1,0.928 ± 0.0096,0.918 ± 0.026,0.892 ± 0.045,0.805 ± 0.032,0.767 ± 0.053,0.531 ± 0.052,0.966 ± 0.018,0.975 ± 0.035,0.963 ± 0.026,0.956 ± 0.042,0.928 ± 0.025,0.857 ± 0.017,1.011 ± 0.0036,0.9964 ± 0.006,0.989 ± 0.014,0.984 ± 0.01,0.9849 ± 0.0016,0.9384 ± 0.003,0.835 ± 0.1,0.803 ± 0.063,0.786 ± 0.025,0.796 ± 0.066,0.822 ± 0.084,0.499 ± 0.13,0.899 ± 0.13,0.896 ± 0.13,0.897 ± 0.12,0.912 ± 0.088,0.832 ± 0.15,0.812 ± 0.14,0.508 ± 0.27,0.315 ± 0.22,0.188 ± 0.21,0.165 ± 0.12,0.0772 ± 0.1,-0.0874 ± 0.078
